Where no end group is shown, it is not given here. The star is where a group is joined. Acm = CC(=O)NC*
Key:
[1] = tested on: ERK; assay: Intrinsic effect on ERK phosphorylation (western blot); format: cell-based; details: MAPK inhibitor added with PCK3145 derivative
Method: In order to investigate the potential intracellular pathways triggered by the PCK3145 derivative, a gene-reporter assay using the SEAP (Secreted Alkaline Phosphatase) Mercury Profiling Kit (CLONTECH) was performed in glioma cells (U-87). This assay enables the monitoring of transcription factors that are triggered by a particular experimental condition by assaying the alkaline phosphatase activity in the extracellular media. […] The induction of the MAPK pathway by the PCK3145 derivative is further confirmed by the rapid and transient induction of ERK phosphorylation between 5-10 minutes (FIG. 8B) and is shown to be dose-dependent (FIG. 8C). Finally, the effects of the PCK3145 derivative were also compared to those of a scrambled peptide.

[2] = tested on: ERK; details: cited from earlier work
[3] = tested on: tumor growth; details: animals, previous results; cited from earlier work
[4] = tested on: ERK; assay: Growth factor-induced ERK phosphorylation in HUVEC (western blot); format: cell-based, Human; details: serum-starved HUVEC, 300 μg/ml for 24 h, then VEGF
Method: (§1) Cell culture. Human umbilical vein endothelial cells (HUVEC) and pulmonary aortic smooth muscle cells (PASMC) were obtained from Clonetics and maintained in endothelial cell basal medium-2, (EBM-2; Clonetics) and smooth muscle medium-2 (SmGM-2; Clonetics), respectively. Cells were cultured at 37° C. under a humidified atmosphere containing 5% CO2. For experimental purposes, cells were plated in 8 100-mm plastic dishes at 5,000 cells/cm^2 and were grown to confluence before overnight serum starvation. Cells were treated with vehicle or with a PCK3145 derivative diluted in 0.1 N NaOH, and stimulated with 50 ng/ml VEGF, PDGF or with 1 μM S1P.
Immunoprecipitation and immunoblotting procedures. After treatment, cells were washed once with phosphate-buffered saline (PBS) containing 1 mM sodium orthovanadate and were incubated in the same medium for 1 h at 4° C. The cells were solubilized on ice in lysis buffer (150 mM NaCl, 10 mM Tris-HCl, pH 7.4, 1 mM EDTA, 1 mM EGTA, 0.5% Nonidet P-40, 1% Triton X-100) containing 1 mM sodium orthovanadate. The cells were then scraped from the culture dishes and the resulting lysates were clarified by centrifugation at 10,000 g for 10 min. Protein concentrations were determined using the micro bicinchoninic acid method. For immunoprecipitation studies, lysates were clarified by a 1 h incubation at 4° C. with a mixture of Protein A/Protein G Sepharose beads. After removal of the Sepharose beads by low-speed centrifugation, identical amounts of protein (200 μg) from each sample were transferred to fresh tubes and incubated in lysis buffer overnight at 4° C. in the presence of 2 μg/ml of specific antibodies. Immunocomplexes were collected by incubating the mixture with 25 μl (50% suspension) of Protein A—(rabbit primary antibody) or Protein G—(mouse primary antibody) Sepharose beads, for 2 h. Nonspecifically-bound material was removed by washing the beads three times in 1 ml of lysis buffer containing 1 mM sodium orthovanadate, and bound material was solubilized in 25 μl of two-fold concentrated Laemmli sample buffer, boiled 5 min, and resolved by SDS-PAGE. The proteins were transferred onto polyvinylidene difluoride (PVDF) membranes, blocked 1 h at room temperature with Tris-buffered saline/Tween 20 (147 mM NaCl, 20 mM Tris/HCl, pH 7.5, and 0.1% Tween 20) containing 2% bovine serum albumin and incubated overnight at 4° C. with primary antibody.
VEGF is a strong activator of ERKs (Extracellular-signal-Regulated protein Kinases) 1 and 2 via VEGF receptor 2. In order to test the ability of the PCK3145 derivative in potentially antagonizing VEGF-mediated ERK phosphorylation, serum-starved quiescent endothelial cells (HUVEC) were incubated with vehicle (phosphate-buffered saline (PBS) pH 7.4) or PCK3145 derivative (300 μg/ml) for 24 h and then stimulated with VEGF, bFGF (basic Fibroblast Growth Factor) or S1P (sphingosine-1-phosphate). Cells were washed with PBS containing NaF/Na3VO4 and incubated in the same medium buffer for 1 h at 4° C. The cells were scraped from the culture dishes and the resulting lysates clarified by centrifugation. Western blotting and immunodetection using anti-phosphoERK and anti-ERK antibodies was then performed.

[5] = biological target: T1, VEGFR-2 (Homo sapiens, UniProt P35968); assay: VEGF-induced VEGFR-2 phosphorylation in HUVEC (immunoprecipitation, western blot); format: cell-based; details: serum-starved HUVEC, 300 μg/ml; 24 h
T1 construct: host or cells: HUVEC
Method: as §1
Immunoprecipitation and immunoblotting procedures. After treatment, cells were washed once with phosphate-buffered saline (PBS) containing 1 mM sodium orthovanadate and were incubated in the same medium for 1 h at 4° C. The cells were solubilized on ice in lysis buffer (150 mM NaCl, 10 mM Tris-HCl, pH 7.4, 1 mM EDTA, 1 mM EGTA, 0.5% Nonidet P-40, 1% Triton X-100) containing 1 mM sodium orthovanadate. The cells were then scraped from the culture dishes and the resulting lysates were clarified by centrifugation at 10,000 g for 10 min. Protein concentrations were determined using the micro bicinchoninic acid method. For immunoprecipitation studies, lysates were clarified by a 1 h incubation at 4° C. with a mixture of Protein A/Protein G Sepharose beads. After removal of the Sepharose beads by low-speed centrifugation, identical amounts of protein (200 μg) from each sample were transferred to fresh tubes and incubated in lysis buffer overnight at 4° C. in the presence of 2 μg/ml of specific antibodies. […]
The multifunctionality of VEGF at the cellular level results from its ability to initiate a diverse, complex and integrated network of signaling pathways via its major receptor, VEGFR-2. […] After each treatment, equal amounts of protein were immunoprecipitated with anti-VEGFR-2 polyclonal antibodies and analysed by Western blotting.

[6] = tested on: tumor cells; details: cited from earlier work
[7] = tested on: skeletal metastasis; details: cited from earlier work

T1 sequence (P35968 20-1356): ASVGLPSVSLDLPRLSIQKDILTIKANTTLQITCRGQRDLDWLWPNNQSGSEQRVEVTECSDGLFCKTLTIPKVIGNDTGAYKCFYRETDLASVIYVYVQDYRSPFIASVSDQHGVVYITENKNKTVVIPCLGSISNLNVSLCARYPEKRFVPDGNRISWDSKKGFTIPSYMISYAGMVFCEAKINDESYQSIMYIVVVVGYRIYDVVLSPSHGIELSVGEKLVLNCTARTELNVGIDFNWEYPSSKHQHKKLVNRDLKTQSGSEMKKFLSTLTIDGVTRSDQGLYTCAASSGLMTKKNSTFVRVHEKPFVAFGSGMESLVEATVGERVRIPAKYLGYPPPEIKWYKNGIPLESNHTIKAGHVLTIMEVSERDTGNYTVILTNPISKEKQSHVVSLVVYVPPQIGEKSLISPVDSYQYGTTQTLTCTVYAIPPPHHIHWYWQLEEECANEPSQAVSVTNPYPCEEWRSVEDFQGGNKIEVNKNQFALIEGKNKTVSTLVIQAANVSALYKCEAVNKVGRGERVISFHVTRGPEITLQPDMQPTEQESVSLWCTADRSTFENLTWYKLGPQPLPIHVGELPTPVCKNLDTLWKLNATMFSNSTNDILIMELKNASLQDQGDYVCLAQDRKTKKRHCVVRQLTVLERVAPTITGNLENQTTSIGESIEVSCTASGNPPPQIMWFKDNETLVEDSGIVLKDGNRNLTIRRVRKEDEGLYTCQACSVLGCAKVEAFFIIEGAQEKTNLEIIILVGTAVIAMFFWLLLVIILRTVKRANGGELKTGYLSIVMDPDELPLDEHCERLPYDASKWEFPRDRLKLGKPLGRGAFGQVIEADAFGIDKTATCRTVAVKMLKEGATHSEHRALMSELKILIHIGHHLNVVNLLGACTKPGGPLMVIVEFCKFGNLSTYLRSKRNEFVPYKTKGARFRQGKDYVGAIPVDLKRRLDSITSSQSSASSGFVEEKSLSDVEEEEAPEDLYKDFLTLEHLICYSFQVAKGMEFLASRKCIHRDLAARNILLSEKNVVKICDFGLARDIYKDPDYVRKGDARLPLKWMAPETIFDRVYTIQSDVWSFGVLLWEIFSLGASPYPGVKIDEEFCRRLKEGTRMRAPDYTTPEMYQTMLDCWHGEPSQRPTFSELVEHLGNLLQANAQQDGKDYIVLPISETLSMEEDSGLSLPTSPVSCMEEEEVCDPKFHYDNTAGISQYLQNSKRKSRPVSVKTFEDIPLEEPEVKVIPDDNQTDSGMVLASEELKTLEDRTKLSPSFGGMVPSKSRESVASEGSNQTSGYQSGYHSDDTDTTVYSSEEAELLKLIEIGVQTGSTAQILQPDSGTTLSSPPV

Molecule: COc1cccc(-c2cc(=O)c3ccccc3o2)c1N [PD98059, reference compound]
- effect on induction of ERK phosphorylation by the PCK3145 derivative [1]: antagonized
- ERK phosphorylation (pharmacological inhibitor, documented) [2]: documented pharmacological inhibitor of ERK phosphorylation

Molecule: EWQTDNCETCTCYET (cysteine pairing not given here) [PCK3145]
- tumor growth [3]: tumor growth inhibition

Molecule: Thr-Cys(Acm)-Glu-Asn-Cys(Acm)-Thr-Glu-Thr-Gln-Trp-Cys(Acm)-Glu-Thr-Asp-Tyr (TC(Acm)ENC(Acm)TETQWC(Acm)ETDY) [scrambled peptide, negative control, reference compound]
- ERK phosphorylation induced by VEGF [4]: lack of effect
- phosphorylation of VEGFR-2 induced by VEGF [5]: lack of effect

B1: Ser Cys Tyr Phe Ile Pro Asn Glu Gly Val Pro Gly Asp Ser Thr Arg Lys Cys Met Asp Leu Lys Gly Asn Lys His Pro Ile Asn Ser Glu Trp Gln Thr Asp Asn Cys Glu Thr Cys Thr Cys Tyr Glu Thr Glu Ile Ser Cys Cys … (protein, listed as Homo sapiens)
chain: SCYFIPNEGVPGDSTRKCMDLKGNKHPINSEWQTDNCETCTCYETEISCCTLVSTPVGYDKDNCQRIFKKEDCKYIVVEKKDPKKTCSVSEWII
notes: Prostate secretory protein, wild type
- growth of tumor cells [6]: inhibits growth
- calcium levels ([7]; animal modeling prostate cancer): reduction in calcium levels
- development of skeletal metastasis ([7]; in vivo): reduces the development of skeletal metastasis

From US20050148514A1, “Method and composition for treatment of angiogenesis” (priority 2003, published 2005)
